Test results as given in PubChem BioAssay AID1963451 (Molecular Pharmacology Branch, DTP, NCI, 2024).

Tested on: 521955-158-R6-J3-PDC complex spheroid growth, % test/control
Experiment: Anticancer human tumor 521955-158-R6-J3-PDC patient-derived pancreatic carcinoma cell line growth inhibition [Asc]
Details: for IC50: curve of first compound; for viability, T/C: stronger effect = lower value; active = viability on the fitted dose curve at most 10% of control; inactive = the rest
Procedure: Multicellular complex tumor spheroid response to apoptosis pathway targeting inhibitors Alrizomadlin, Pelcitoclax, and Dasminapant in combination with a variety of drugs and investigational agents in selected tumor cell lines
The MDM2 inhibitor alrizomadlin, the Bcl-2/Bcl-xL inhibitor pelcitoclax, and the IAPs inhibitor dasminapant were evaluated both individually and in combination with standard of care and investigational anticancer small molecules within a complex spheroid model of solid tumors. . Complex spheroids include a stromal component modeled by human endothelial cells (HUVEC) and fibroblasts modeled by human mesenchymal stem cells (MSCs). The concentration ranges selected for each drug and investigational agent were based upon clinically achievable concentrations if the clinical Cmax of the agent was known.
Compounds. The drugs and investigational agents: alrizomadlin (APG-115; NSC831270), pelcitoclax (APG-1252; NSC835773), dasminapant (APG-1387;NSC834197), TAK-243 (NSC785004), copanlisib (NSC809693), olaparib (NSC753686), talazoparib (NSC767125), cobimetinib (NSC 768068), eltanexor (KPT-8602, NSC 794443), abemaciclib (NSC 768073), sotorasib (NSC818433), adagrasib (NSC 831453), MRTX-1133 (NSC 836407), Iadademestat (ORY1001, NSC 806812), and RMC-4630 (NSC839698), were obtained from the NCI Developmental Therapeutics Program Chemical Repository. The FDA-approved anticancer drug set is available from the Developmental Therapeutics Program at https://dtp.cancer.gov/organization/dscb/obtaining/available plates.htm. […] The stock solutions were prepared in dimethyl sulfoxide (DMSO, Sigma-Aldrich, St. Louis, MO, cat. D2650) at 800-fold the tested concentration and stored at -70 degrees C prior to their use. All drugs and investigational agents were tested over a range starting from a high concentration at or near the clinical Cmax and decreasing in half-log increments. If the clinical Cmax for an agent had not been determined, the highest concentration tested was 10 microM.
The patient-derived cancer (PDC) cell lines include five colon adenocarcinomas: 186277-243-T-J2-PDC, 616215-338-R-J1-PDC, 439559-082-T-J2-PDC, 463943-066-T-J2-PDC, and 519858-162-T-J1-PDC; three pancreatic carcinomas: 323965-272-R-J2-PDC, 521955-158-R6-J3-PDC, and 521955-158-R2-J5-PDC; two uterine sarcomas: 327498-152-R-J2-PDC and 993429-296-R-J1-PDC; two rhabdomyosarcomas: 755483-174-R-J1-PDC and 772245-204-R-J1-PDC; two soft tissue sarcomas: 126254-015-R-J1-PDC and 494315-158-R-J1-PDC; two malignant fibrous histiocytomas: 317291-083-R-J1-PDC and 596521-263-R-J1-PDC; two breast carcinomas: 171881-019-R-J1-PDC and 885512-296-R-J2-PDC; and one ovarian carcinoma: 6556581-035-R-J-PDC were obtained from the NCI PDMR, (https://pdmr.cancer.gov). The established cell lines HSSY-2 synovial sarcoma (RRID:CVCL 8719), SYO-1 synovial sarcoma (RRID:CVCL_7146), MPNST malignant peripheral neural sheath tumor were obtained from the Sloan Kettering Institute. The following established cell lines were purchased from the American Type Culture Collection (ATCC, Manassas, VA), Sor the received from the NCI repository:, PANC-1 pancreatic carcinoma (CRL-1469, RRID:CVCL_0480), OVCAR-5 ovarian carcinoma (RRID:CVCL_1628), OVCAR-8 ovarian carcinoma (RRID:CVCL_1629), , MCF-7 breast carcinoma (CRL-12584, RRID:CVCL_0031), MDA-MB-231 breast carcinoma (CRL-12532, RRID:CVCL_0062), NCI-H1876 small cell lung carcinoma (CRL-5902, RRID:CVCL_1503), NCI-H510A small cell lung carcinoma (HTB-184, RRID:CVCL_1565), NCI-H1417 (CRL-5869, RRID:CVCL_1469), and NCI-H196 small cell lung carcinoma (CRL-5823, RRID:CVCL_1509). Dr. Peter Houghton (Greehey Children's Cancer Research Institute, University of Texas Health Science Center, San Antonio, TX) provided Rh-18 rhabdomyosarcoma (RRID:CVCL_1659). Pooled donor human umbilical vein endothelial cells (HUVEC, Lonza, cat. CC-2519) and human mesenchymal stem cells (hMSC, Lonza, cat. PT-2501) were purchased from Lonza (Walkersville, MD).
Cell Culture. […]
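Also: spheroids exposed to compounds for 7 days.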
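For viability, T/C in this document: 100% = DMSO vehicle control wells.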

C=C(F)C(=O)N1CCN(c2nc(OCC3CCCN3C)nc3c2CCN(c2cccc4cccc(Cl)c24)C3)CC1CC#N (configuration not stated) + CNC(C)C(=O)NC1CN(S(=O)(=O)c2cccc(S(=O)(=O)N3CCC4CCC(C(=O)NC(c5ccccc5)c5ccccc5)N4C(=O)C(NC(=O)C(C)NC)C3)c2)CCC2CCC(C(=O)NC(c3ccccc3)c3ccccc3)N2C1=O
3.46 µM: IC50 (second compound 1 µM)
active: viability, T/C (second compound 0.00316 µM, first compound 10 µM) 0.24% | viability, T/C (second compound 0.01 µM, first compound 10 µM) 0.28% | viability, T/C (second compound 0.0316 µM, first compound 10 µM) 0.21% | viability, T/C (second compound 0.1 µM, first compound 10 µM) 0.28% | viability, T/C (second compound 0.316 µM, first compound 10 µM) 0.26% | viability, T/C (second compound 1 µM, first compound 10 µM) 0.32%
3.84 µM: IC50 (second compound 0.316 µM)
4.74 µM: IC50 (second compound 0.00316 µM)
3.96 µM: IC50 (second compound 0.0316 µM)
inactive: viability, T/C (second compound 0.00316 µM, first compound 0.0316 µM) 92.6% | viability, T/C (second compound 0.00316 µM, first compound 0.1 µM) 88.5% | viability, T/C (second compound 0.00316 µM, first compound 0.316 µM) 81.2% | viability, T/C (second compound 0.00316 µM, first compound 1 µM) 77.6% | viability, T/C (second compound 0.00316 µM, first compound 3.16 µM) 76.8% | viability, T/C (second compound 0.01 µM, first compound 0.0316 µM) 87.4% | viability, T/C (second compound 0.01 µM, first compound 0.1 µM) 83% | viability, T/C (second compound 0.01 µM, first compound 0.316 µM) 80.5% | viability, T/C (second compound 0.01 µM, first compound 1 µM) 66.9% | viability, T/C (second compound 0.01 µM, first compound 3.16 µM) 69.4% | viability, T/C (second compound 0.0316 µM, first compound 0.0316 µM) 95.6% | viability, T/C (second compound 0.0316 µM, first compound 0.1 µM) 98.2% | viability, T/C (second compound 0.0316 µM, first compound 0.316 µM) 73.7% | viability, T/C (second compound 0.0316 µM, first compound 1 µM) 71.2% | viability, T/C (second compound 0.0316 µM, first compound 3.16 µM) 70.2% | viability, T/C (second compound 0.1 µM, first compound 0.0316 µM) 84.9% | viability, T/C (second compound 0.1 µM, first compound 0.1 µM) 74.2% | viability, T/C (second compound 0.1 µM, first compound 0.316 µM) 76.4% | viability, T/C (second compound 0.1 µM, first compound 1 µM) 69.7% | viability, T/C (second compound 0.1 µM, first compound 3.16 µM) 66.7% | viability, T/C (second compound 0.316 µM, first compound 0.0316 µM) 79.6% | viability, T/C (second compound 0.316 µM, first compound 0.1 µM) 80.6% | viability, T/C (second compound 0.316 µM, first compound 0.316 µM) 77.1% | viability, T/C (second compound 0.316 µM, first compound 1 µM) 68.8% | viability, T/C (second compound 0.316 µM, first compound 3.16 µM) 62.5% | viability, T/C (second compound 1 µM, first compound 0.0316 µM) 70.8% | viability, T/C (second compound 1 µM, first compound 0.1 µM) 77.2% | viability, T/C (second compound 1 µM, first compound 0.316 µM) 80.2% | viability, T/C (second compound 1 µM, first compound 1 µM) 71.5% | viability, T/C (second compound 1 µM, first compound 3.16 µM) 54.4%
4.13 µM: IC50 (second compound 0.01 µM) | IC50 (second compound 0.1 µM)
